Results as given in paper PMC11767490, “A Bis-Glycosylamine Strategy for the Synthesis of Dimeric Iminosugars Based on a DAB-1 Scaffold” (Molecules, 2025).
Where two headings read alike, the source gives them in different places. Marks after values point to notes of the source that are not given here.

Legend:
[1] = biological target: T1, α-glucosidase (Sac. cerevisiae) (Saccharomyces cerevisiae, UniProt P53341); assay: glycosidase inhibition assay, α-glucosidase from yeast; format: biochemical; conditions: for inhibition at 1000 µM: pH 6.2, read-out: % inhibition at 1 mM concentration of inhibitor, 1 mM inhibitor, negative values mean activation
T1 construct: purchased Sigma Chemical Co
Experimental: (§1) A prepared sample of DAB-1 8 was also tested under the same conditions for ease of comparison. A first set of biological assays was effected at 1 mM concentration of inhibitor. […] Former results from our laboratories have always followed this empirical rule.
(§2) All the enzymes were purchased from Sigma Chemical Co. In a typical experiment, the glycosidase (0.013 U/mL) was pre-incubated at 33 °C for 5 min in the presence of the inhibitor in 50 mM acetate buffer (pH 5.6, except for rice α-glucosidase pH 5.1 and yeast α-glucosidase pH 6.2). The reaction was started by the addition of the appropriate substrate (p-nitrophenyl glycoside, 1 mM concentration) to a final volume of 250 µL. The reaction was stopped after 10–15 min (depending on the enzyme) by the addition of 350 µL of 0.4 M Na2CO3. The released p-nitrophenolate was quantified spectrophotometrically at 415 nm with a microplate reader (300 µL of the reaction mixture per well). […] All the assays were performed in duplicate (less than 10% variability in each case).

[2] = biological target: T2, α-galactosidase (green coffee) (Coffea arabica, UniProt Q42656); assay: glycosidase inhibition assay, α-galactosidase from green coffee bean; format: biochemical; conditions: 1 mM inhibitor; pH 5.6; read-out: % inhibition at 1 mM concentration of inhibitor
T2 construct: purchased Sigma Chemical Co
Experimental: as §1, §2

[3] = biological target: T3, β-glucosidase (Asp. niger) (Aspergillus niger, UniProt A2RAL4); assay: glycosidase inhibition assay, β-glucosidase from A. niger; format: biochemical; conditions: for inhibition at 1000 µM: pH 5.6, 1 mM inhibitor, pH 5.6, read-out: % inhibition at 1 mM concentration of inhibitor
T3 construct: purchased Sigma Chemical Co
Experimental: as §1, §2

[4] = tested on: β-glucosidase (almond); assay: glycosidase inhibition assay, β-glucosidase from almond; format: biochemical; conditions: pH 5.6; for % inhibition at 1 mM concentration of inhibitor: 1 mM inhibitor
Experimental: as §1, §2

[5] = biological target: T4, α-glucosidase (rice) (Oryza sativa subsp. japonica, UniProt Q653V7); assay: glycosidase inhibition assay, α-glucosidase from rice; format: biochemical; conditions: for inhibition at 1000 µM: pH 5.1, 1 mM inhibitor, pH 5.1, p-nitrophenyl glycoside 1 mM, read-out: % inhibition at 1 mM concentration of inhibitor
T4 construct: purchased Sigma Chemical Co
Experimental: as §1, §2

[6] = biological target: T5, β-galactosidase (Asp. orizae) (Aspergillus oryzae, UniProt Q2UCU3); assay: glycosidase inhibition assay, β-galactosidase from A. orizae; format: biochemical; conditions: for inhibition at 1000 µM: pH 5.6, read-out: % inhibition at 1 mM concentration of inhibitor; for IC50: pH 5.6
T5 construct: purchased Sigma Chemical Co
T5 sequence (Q2UCU3 19-1005): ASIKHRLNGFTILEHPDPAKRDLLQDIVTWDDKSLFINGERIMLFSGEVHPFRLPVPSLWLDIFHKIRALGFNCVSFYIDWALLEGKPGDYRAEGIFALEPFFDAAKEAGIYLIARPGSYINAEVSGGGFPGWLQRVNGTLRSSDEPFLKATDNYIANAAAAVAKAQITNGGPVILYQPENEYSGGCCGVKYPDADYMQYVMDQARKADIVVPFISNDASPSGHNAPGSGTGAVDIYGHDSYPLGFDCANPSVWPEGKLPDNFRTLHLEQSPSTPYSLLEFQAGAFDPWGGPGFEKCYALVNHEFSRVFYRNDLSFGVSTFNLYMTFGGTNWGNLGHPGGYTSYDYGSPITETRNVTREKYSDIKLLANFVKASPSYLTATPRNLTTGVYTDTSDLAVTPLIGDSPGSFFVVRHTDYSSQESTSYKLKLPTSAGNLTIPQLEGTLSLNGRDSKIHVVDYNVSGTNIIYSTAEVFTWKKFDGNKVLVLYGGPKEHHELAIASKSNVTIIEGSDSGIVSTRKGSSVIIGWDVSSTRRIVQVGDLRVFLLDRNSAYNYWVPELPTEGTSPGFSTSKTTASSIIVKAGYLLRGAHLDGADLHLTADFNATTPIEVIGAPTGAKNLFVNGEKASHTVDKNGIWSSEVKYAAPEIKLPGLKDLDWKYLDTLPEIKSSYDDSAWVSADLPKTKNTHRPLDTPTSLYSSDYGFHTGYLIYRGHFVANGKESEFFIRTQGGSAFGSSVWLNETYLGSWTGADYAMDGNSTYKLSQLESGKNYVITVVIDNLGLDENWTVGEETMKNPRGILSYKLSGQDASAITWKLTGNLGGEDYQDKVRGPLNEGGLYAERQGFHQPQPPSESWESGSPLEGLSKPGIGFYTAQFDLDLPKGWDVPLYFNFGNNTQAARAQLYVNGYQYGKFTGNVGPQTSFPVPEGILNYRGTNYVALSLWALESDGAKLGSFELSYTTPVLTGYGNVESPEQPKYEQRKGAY
Experimental: as §1, §2

[7] = tested on: β-GlcNAc-ase (Jack bean); assay: glycosidase inhibition assay, β-N-acetylglucosaminidase from Jack bean; format: biochemical; conditions: for % inhibition at 1 mM concentration of inhibitor: 1 mM inhibitor, pH 5.6, negative values mean activation; for activation of enzyme activity: 1 mM compound
Experimental: as §1, §2

[8] = biological target: T6, α-mannosidase (Jack bean) (Canavalia ensiformis, UniProt C0HJB3); assay: glycosidase inhibition assay, α-mannosidase from Jack bean; format: biochemical
T6 construct: purchased Sigma Chemical Co
T6 sequence (C0HJB3 1-981): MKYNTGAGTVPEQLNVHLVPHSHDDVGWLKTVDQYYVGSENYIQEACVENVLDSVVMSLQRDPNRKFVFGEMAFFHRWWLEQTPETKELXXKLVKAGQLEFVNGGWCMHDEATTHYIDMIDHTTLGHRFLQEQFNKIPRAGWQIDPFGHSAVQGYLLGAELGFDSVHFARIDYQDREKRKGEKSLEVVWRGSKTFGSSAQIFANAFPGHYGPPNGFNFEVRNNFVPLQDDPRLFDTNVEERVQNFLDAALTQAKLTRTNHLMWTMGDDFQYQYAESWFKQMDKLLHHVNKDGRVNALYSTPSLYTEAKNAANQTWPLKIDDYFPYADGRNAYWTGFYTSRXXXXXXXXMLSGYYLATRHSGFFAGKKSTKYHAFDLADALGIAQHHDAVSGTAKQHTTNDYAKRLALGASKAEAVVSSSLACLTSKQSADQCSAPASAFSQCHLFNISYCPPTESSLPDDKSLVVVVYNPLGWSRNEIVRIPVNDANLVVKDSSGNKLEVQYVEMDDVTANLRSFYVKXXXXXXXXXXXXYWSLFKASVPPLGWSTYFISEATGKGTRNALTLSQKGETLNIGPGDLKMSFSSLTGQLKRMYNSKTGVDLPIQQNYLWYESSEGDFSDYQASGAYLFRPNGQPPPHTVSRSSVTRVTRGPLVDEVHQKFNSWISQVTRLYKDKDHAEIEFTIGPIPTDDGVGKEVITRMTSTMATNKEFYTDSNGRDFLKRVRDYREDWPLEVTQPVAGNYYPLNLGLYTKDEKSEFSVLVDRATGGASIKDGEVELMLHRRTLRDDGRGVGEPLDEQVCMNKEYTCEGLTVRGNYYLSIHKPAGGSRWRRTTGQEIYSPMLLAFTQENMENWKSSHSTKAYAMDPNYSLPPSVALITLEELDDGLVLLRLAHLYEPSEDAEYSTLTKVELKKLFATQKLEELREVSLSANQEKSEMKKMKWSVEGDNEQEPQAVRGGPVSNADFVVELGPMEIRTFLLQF
Experimental: as §1, §2

[9] = tested on: α-rhamnosidase (Asp. niger); assay: glycosidase inhibition assay, α-rhamnosidase from A. niger; format: biochemical; conditions: 1 mM inhibitor; pH 5.6
Experimental: as §1, §2

[10] = biological target: fucosidase; set-up: method as in PMID 27138139; conditions: cited from earlier work
[11] = pH 5.6, read-out: % inhibition at 1 mM concentration of inhibitor
[12] = 1 mM inhibitor, pH 5.6, read-out: % inhibition at 1 mM concentration of inhibitor

T2 sequence (Q42656 16-378): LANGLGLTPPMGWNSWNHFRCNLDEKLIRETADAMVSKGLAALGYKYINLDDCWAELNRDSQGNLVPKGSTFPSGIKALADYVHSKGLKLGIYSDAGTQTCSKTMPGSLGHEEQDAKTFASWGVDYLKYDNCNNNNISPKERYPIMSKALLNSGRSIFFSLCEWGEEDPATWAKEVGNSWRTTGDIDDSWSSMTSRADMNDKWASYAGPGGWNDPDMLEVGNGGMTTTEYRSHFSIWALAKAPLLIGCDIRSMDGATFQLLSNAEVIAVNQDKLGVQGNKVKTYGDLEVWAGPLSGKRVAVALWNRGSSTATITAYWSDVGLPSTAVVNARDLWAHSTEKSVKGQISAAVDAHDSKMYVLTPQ
T4 sequence (Q653V7 34-885): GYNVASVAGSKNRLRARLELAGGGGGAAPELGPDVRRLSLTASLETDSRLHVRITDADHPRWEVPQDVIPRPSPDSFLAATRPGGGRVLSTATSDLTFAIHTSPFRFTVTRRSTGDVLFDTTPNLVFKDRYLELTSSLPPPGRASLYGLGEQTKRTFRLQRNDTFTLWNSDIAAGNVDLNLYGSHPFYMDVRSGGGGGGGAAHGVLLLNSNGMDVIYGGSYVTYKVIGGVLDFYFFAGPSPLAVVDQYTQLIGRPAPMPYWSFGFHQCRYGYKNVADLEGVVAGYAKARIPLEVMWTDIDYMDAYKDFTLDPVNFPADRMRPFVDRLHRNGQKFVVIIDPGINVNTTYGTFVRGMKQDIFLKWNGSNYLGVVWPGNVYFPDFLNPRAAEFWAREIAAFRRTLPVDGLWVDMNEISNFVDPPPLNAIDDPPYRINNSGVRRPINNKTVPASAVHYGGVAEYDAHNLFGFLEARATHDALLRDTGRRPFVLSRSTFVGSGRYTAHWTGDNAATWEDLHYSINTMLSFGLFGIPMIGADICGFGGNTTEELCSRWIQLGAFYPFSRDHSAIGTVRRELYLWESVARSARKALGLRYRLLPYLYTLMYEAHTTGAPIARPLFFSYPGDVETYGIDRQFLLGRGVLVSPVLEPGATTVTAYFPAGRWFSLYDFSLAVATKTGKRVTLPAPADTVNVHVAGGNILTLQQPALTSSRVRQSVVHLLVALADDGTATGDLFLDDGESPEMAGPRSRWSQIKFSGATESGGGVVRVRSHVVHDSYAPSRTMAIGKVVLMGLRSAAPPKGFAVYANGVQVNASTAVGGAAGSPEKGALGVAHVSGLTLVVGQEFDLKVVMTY
T1 sequence (P53341 whole entry): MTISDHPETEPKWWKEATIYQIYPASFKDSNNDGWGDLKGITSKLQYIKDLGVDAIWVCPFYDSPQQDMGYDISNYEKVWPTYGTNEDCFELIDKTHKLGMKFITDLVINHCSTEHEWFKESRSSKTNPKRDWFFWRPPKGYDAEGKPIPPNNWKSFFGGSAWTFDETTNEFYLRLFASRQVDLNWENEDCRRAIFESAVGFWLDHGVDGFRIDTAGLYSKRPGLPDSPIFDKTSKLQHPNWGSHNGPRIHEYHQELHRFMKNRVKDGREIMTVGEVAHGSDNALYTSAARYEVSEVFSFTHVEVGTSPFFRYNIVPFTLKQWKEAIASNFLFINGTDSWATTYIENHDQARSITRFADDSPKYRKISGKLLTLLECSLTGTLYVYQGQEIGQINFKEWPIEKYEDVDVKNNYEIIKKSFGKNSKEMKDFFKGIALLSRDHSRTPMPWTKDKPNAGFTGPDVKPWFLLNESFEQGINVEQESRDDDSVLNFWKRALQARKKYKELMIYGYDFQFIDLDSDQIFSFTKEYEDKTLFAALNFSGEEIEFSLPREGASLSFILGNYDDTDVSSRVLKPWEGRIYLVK
T3 sequence (A2RAL4 20-860): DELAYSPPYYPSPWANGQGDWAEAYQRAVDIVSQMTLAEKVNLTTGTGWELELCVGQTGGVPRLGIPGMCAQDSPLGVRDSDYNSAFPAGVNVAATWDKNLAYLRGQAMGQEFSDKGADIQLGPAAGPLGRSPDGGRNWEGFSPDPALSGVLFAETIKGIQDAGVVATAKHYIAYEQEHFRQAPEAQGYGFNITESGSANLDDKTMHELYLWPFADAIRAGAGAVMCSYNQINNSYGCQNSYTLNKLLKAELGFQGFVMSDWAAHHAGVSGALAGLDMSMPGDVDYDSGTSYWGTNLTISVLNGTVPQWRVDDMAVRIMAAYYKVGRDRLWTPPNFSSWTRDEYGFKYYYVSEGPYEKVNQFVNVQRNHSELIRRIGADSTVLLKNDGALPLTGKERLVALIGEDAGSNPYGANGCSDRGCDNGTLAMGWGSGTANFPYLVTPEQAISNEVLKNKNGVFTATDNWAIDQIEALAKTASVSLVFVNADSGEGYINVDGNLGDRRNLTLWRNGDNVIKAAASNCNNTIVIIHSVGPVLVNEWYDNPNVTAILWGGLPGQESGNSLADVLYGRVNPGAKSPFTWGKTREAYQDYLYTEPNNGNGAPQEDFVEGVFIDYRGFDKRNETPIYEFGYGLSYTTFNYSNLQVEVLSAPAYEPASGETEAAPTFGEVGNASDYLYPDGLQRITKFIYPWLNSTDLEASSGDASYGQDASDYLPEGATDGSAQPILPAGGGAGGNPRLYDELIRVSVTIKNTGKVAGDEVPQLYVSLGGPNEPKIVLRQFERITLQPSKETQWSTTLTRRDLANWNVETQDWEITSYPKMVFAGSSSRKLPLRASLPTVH

| Structure (SMILES) | inhibition at 1000 µM ([1]; pH 6.2) [%] | inhibition at 1000 µM [2] [%] | inhibition at 1000 µM [3] [%] | % inhibition at 1 mM concentration of inhibitor [4] [%] | inhibition at 1000 µM [5] [%] | inhibition at 1000 µM [6] [%] | % inhibition at 1 mM concentration of inhibitor [7] | inhibition at 1000 µM [8, 11] [%] | % inhibition at 1 mM concentration of inhibitor [9] [%] | inhibition at 1000 µM [8, 12] [%] | IC50 ([8]; pH 5.6) [µM] | further results |
| --- | --- | --- | --- | --- | --- | --- | --- | --- | --- | --- | --- | --- |
| OC[C@@H]1[C@@H](O)[C@H](O)CN1Cc1cccc(CN2C[C@@H](O)[C@H](O)[C@H]2CO)c1 [13a] | 88 | 38 | 24 | 13 | 40 | 93 | NI (NI means no impact on enzyme activity (less than 5% inhibition or activation)) | 75 | 67 |  |  |  |
| OC[C@@H]1[C@@H](O)[C@H](O)CN1Cc1ccc(CN2C[C@@H](O)[C@H](O)[C@H]2CO)cc1 [13b] | 95 | < 5 | 43 | 16 | 77 | > 95 | NI (NI means no impact on enzyme activity (less than 5% inhibition or activation)) |  | 24 | 84 |  | IC50 [1]: 39 µM; IC50 [6]: 2.8 µM |
| OC[C@@H]1[C@@H](O)[C@H](O)CN1CCCCCCCCN1C[C@@H](O)[C@H](O)[C@H]1CO [13c] | 88 | 61 | 94 | 60 | 92 | > 95 | NI (NI means no impact on enzyme activity (less than 5% inhibition or activation)) |  | 69 | > 95 | 18 | IC50 [6]: 31 µM |
| OC[C@@H]1[C@@H](O)[C@H](O)CN1CCOCCOCCN1C[C@@H](O)[C@H](O)[C@H]1CO [13d] | ~90 | 22 | ~90 | 24 | ~90 | 92 | –38% ^c | 82 | 46 |  |  | activation of enzyme activity [7]: 38% |
| OC[C@@H]1[C@@H](O)[C@H](O)CN1CCCOCCOCCOCCCN1C[C@@H](O)[C@H](O)[C@H]1CO [13e] | 65 | 22 | 91 | 23 | 72 | 81 | NI (NI means no impact on enzyme activity (less than 5% inhibition or activation)) |  | 18 | > 95 | 34 |  |
| C=CC[C@@H]1[C@@H](O)[C@H](O)[C@@H](CO)N1CCOCCOCCN1[C@H](CO)[C@@H](O)[C@H](O)[C@H]1CC=C [16d] | -20 | < 5 | 51 | 25 | 26 | 58 | –33% ^c | 32 | 25 |  |  | enhancement of enzyme activity ([1]; activation, 1 mM compound): 20%; activation of enzyme activity [7]: 33% |
| OC[C@H]1NC[C@@H](O)[C@@H]1O [DAB-1] | > 95 | 11 | > 95 | 95 | > 95 | 76 | 14% |  | 34 | > 95 | 49 | IC50 ([1]; pH 6.2, determined when >95% inhibition at 1 mM, read-out: IC50): 0.69 µM; IC50 [3]: 62 µM; IC50 [4]: 79 µM; IC50 [5]: 7.8 µM |
| C[C@@H]1N[C@@H](CCCC[C@@H]2N[C@@H](C)[C@@H](O)[C@H]2O)[C@H](O)[C@@H]1O [compound 6] |  |  |  |  |  |  |  |  |  |  |  | IC50 [10]: 0.108 µM; fold increase in the inhibition potency relative to the monomer ([10]; dimer vs monomer): 19 fold |
